Source: US20230069886A1, “AROMATIC SULPHONAMIDES DERIVATIVES THAT INHIBITS PDI A3, THEIR SYNTHESIS AND USE” (Uniwersytet Jagiellonski, priority 2020, published 2023)
Values after ≈ are worked out from the molar mass of the structure shown.

Columns and labels:
arterial thrombosis = assay: In vivo models of arterial thrombosis; design: species or system rat or mice; details: FIG. 5
Experimental: To confirm antithrombotic activity of compounds of invention, inhibitors of PDIA3, pharmacological activity of selected compounds was tested in vivo in the rat or mice model of arterial thrombosis. Wistar rats were anaesthetized with pentobarbital (40 mg/kg, i.p.) and placed in a supine position on a heated (37° C.) operating table. Arterial thrombosis was induced by electrical stimulation of the right common carotid artery, as previously described (Kramkowski et al., 2012). Briefly, the anode, a stainless steel L-shaped wire, was inserted under the artery and connected to a constant current generator. The cathode was attached subcutaneously to the hind limb. The artery was stimulated (1 mA) for 10 min. Fifty-five minutes after the beginning of stimulation, the segment of the common carotid artery containing the formed thrombus was dissected and opened lengthwise, and the thrombus was completely removed and air-dried at room temperature for 24 h. Thrombus was then weighed in a blinded manner. Antithrombotic effects of compounds of invention in mice was analyzed using intravital fluorescence confocal microscopy as described previously (Hayashi T et al., 2008). […] Changes in fluorescence intensity were measured as described previously (Hayashi T et al., 2008, Kramkowski et al., 2002)

HL-60 = assay: MTT antiproliferative assay, 72 h, HL-60; format: cell-based, human; details: 72 hours exposition
Experimental: (§1) Anticancer activity of selected compounds of invention, PDI A3-inhibitors has been also tested in vitro in antiproliferative assay in normoxic and hypoxic conditions as well in estrogen-stimulated cancer cells. In the experiment, cells were seeded on 96-well plates (Sarstedt, Germany) in appropriate culture medium at a density of 10^5 cells/mL 24 h before adding the tested compounds. Cells were treated with each compound in four concentrations in the range 0.1-100 μg/mL. […] After 72 h of compound treatment at 37° C., 5% CO2 humid atmosphere and in wo different oxygen level conditions: 21%—normal and <1%—hypoxia. In some experiments the MDA-MB-231 and MCF-7 cells were seeded with or without 200 nM estradiol and after 24 h the tested compounds were added. A previously described sulforhodamine B antiproliferative assay was used with minor modifications (Skehan P et al., 1990). Briefly, cells were fixed with 50 μL/well of 50% (w/v) trichloroacetic acid (Avantor Performance Materials, Gliwice, Poland). After 1 h incubation, plates were washed several times with tap water and 50 μL of 0.4% (w/v) solution of sulforhodamine B (Sigma-Aldrich, Germany) in 1% (v/v) acetic acid (Avantor Performance Materials, Gliwice, Poland) was added to each well. After 30 min incubation at room temperature, unbound dye was washed out with 1% (v/v) acetic acid, whereas bound dye was solubilized with 10 mM unbuffered TRIS (Avantor Performance Materials, Gliwice, Poland) solution. The entire procedure was performed using a BioTek EL-406 washing station (BioTek Instruments, USA). After additional 30 min, absorbance was read using a Biotek Hybrid H4 reader (BioTek Instruments, USA) at 540 nm wavelength. MTT assay was used alternatively for HL-60 cell line and in the experiment in which estrogens are added (specified in the table legend). Absorbance was measured using a Biotek Hybrid H4 reader at 570 nm wavelength for MTT assay.
(§2) Compounds at each concentration were tested in triplicate in a single experiment and each experiment was repeated at least three times independently. Results are presented as mean IC50±SD.

MDA-MB-231 = assay: MTT antiproliferative assay, 48 h, MDA-MB-231; format: cell-based, human; details: 48-hour exposition, read-out: Cytotoxicity, IC50, μM MDA-MB-231
Experimental: (§3) Anticancer activity of compounds of invention, PDI A3-inhibitors has been tested in vitro in classical antiproliferative assay in various cancer cells lines. Monolayer tumor cell lines MDA-MB-231 (human mammary breast adenocarcinoma), MCF-7 (human breast adenocarcinoma, estrogen-positive), HT-1080 (human fibrosarcoma) and Caco-2 (human colon adenocarcinoma) were cultured in standard medium DMEM (Dulbecco's modified Eagle's medium) (“Sigma”) supplemented with 10% foetal bovine serum (“Sigma”). About 2000-4000 cells per well (depending on line nature) were placed in 96-well plates and after 24 h compounds were added to the wells. Untreated cells were used as a control. The plates were incubated for 48 h, 37° C., 5% CO2. The number of surviving cells was determined using 3-(4,5-dimethylthiazol-2-yl)-2,5-diphenyltetrazolinium bromide (MTT). MTT-test: after incubating culture medium was removed and 200 μL fresh medium with 20 μL MTT (2 mg/mL in HBSS) was added in each well of the plate. After incubation (3 hr., 37° C., 5% CO2), the medium with MTT was removed and 200 μL DMSO were added at once to each sample. The samples were tested at 540 nm on Thermo Scientific Multiskan EX microplate photometer. The half-maximal inhibitory concentration (IC50) of each compound was calculated using Graph Pad Prism® 3.0.

MCF-7 = assay: MTT antiproliferative assay, 72 h, with or without estradiol, MCF-7; format: cell-based, human
Experimental: as §1, §2

HT-1080 = assay: MTT antiproliferative assay, 48 h, HT-1080; format: cell-based, human; details: 48-hour exposition, read-out: Cytotoxicity, IC50, μM HT-1080
Experimental: as §3

SMILES: COC(=O)C1CN1S(=O)(=O)c1ccc2c(C=O)c(N(C)C)ccc2c1 (stereo not shown) [Compound C-3390, Methyl 1-[[6-(dimethylamino)-5-formyl-2-naphthyl]sulfonyl]aziridine-2-calboxylate]
- Anti-thrombotic effects in vivo (arterial thrombosis): anti-thrombotic effects
- IC50 [μg/ml] HL-60 normal (HL-60): 14.4 ± 0.7 µg/mL (≈ 39.7 µM)
- IC50 (MDA-MB-231): 18 ± 0.1 µM
- Lower sensitivity after treatment with estradiol in MCF-7 (MCF-7; estradiol (200 nM), Table 4): not observed
- IC50 [μg/ml] MCF-7 normal (MCF-7; not pretreated with estradiol, 72 hours exposition, MTT): 3.2 ± 0.3 µg/mL (≈ 8.83 µM)
- IC50 [μg/ml] MCF-7 +estradiol (MCF-7; pretreated with 200 nM estradiol, 72 hours exposition, MTT): 3.4 ± 0.3 µg/mL (≈ 9.38 µM)
- IC50 (HT-1080): 7.9 ± 0.9 µM
